Measured values as given in patent publication US9040727B2, “Histone deacetylase inhibitor of benzamides and use thereof” (Shanghai Institute of Pharmaceutical Industry, priority 2011, dated 2015).
Where two headings read alike, the source gives them in different places.

Legend:
HDAC1 = HDAC1 (Homo sapiens (Human), UniProt Q13547); experiment: In vitro inhibitory activity towards HDAC1 (HDAC Inhibitor Drug Screening Kit); type: biochemical; details: for inhibitory activity against HDAC1 compared with MS-275 (by IC50): comparison with MS-275; for inhibition at 1 µM: compound at 1 μM; for inhibition at 10 µM: compound at 10 μM
Method: (1) The compounds to be tested were each individually prepared as 10 μM and 1 μM solutions and their inhibitory activities towards HDAC1 at these concentrations were tested.
(§1) Each dilution sample was placed in two wells and the enzyme inhibition IC50 of the compound was tested.

[1] = test system: K562 human chronic myelogenous leukemia cells; experiment: In vitro anti-proliferative effect, CCK-8 method; type: cell-based
Method: (§2) The inhibitory activities of the compounds towards Hut78 T lymphocytic leukemia cells, Jurkat E6-1 human T-cell lymphoma, A549 human lung cancer cells, K562 human chronic myelogenous leukemia cells, Hep3B2.1-7 human liver cancer cells, MDA-MB-435s human breast cancer cells, Colo320 human rectal cancer cell line, and PC-3 human prostate cancer were determined. The inhibition percentages as represented by IC50 values were obtained through CCK-8 method.

[2] = test system: Hep3B2.1-7 human liver cancer cells; experiment: In vitro anti-proliferative effect, CCK-8 method; type: cell-based; details: Hep3B
Method: as §2

[3] = test system: Hut78 T lymphocytic leukemia cells; experiment: In vitro anti-proliferative effect, CCK-8 method; type: cell-based
Method: as §2

[4] = test system: PC-3 human prostate cancer; experiment: In vitro anti-proliferative effect, CCK-8 method; type: cell-based
Method: as §2

[5] = test system: multiple strains of tumor cells; experiment: In vitro inhibition of proliferation of tumor cell strains (overall comparison); type: cell-based; details: comparison with MS-275
Method: as §2

HDACs = experiment: In vitro inhibition of HDACs (HDAC Inhibitor Drug Screening Kit); type: biochemical; details: for inhibitory activity on HDACs compared with MS-275 (by IC50): comparison with MS-275
Method: The test was conducted according to the instructions in the HDAC Inhibitor Drug Screening Kit (Biovision/Catalog #50051, BPS).
as §1

[6] = test system: Colo320 human rectal cancer cell line; experiment: In vitro anti-proliferative effect, CCK-8 method; type: cell-based
Method: as §2

[7] = Preliminary pharmacokinetic experiment; details: in vivo, rat
[8] = test system: Jurkat E6-1 human T-cell lymphoma; experiment: In vitro anti-proliferative effect, CCK-8 method; type: cell-based
Method: as §2

[9] = test system: A549 human lung cancer cells; experiment: In vitro anti-proliferative effect, CCK-8 method; type: cell-based
Method: as §2

hERG potassium channel = hERG potassium channel (Homo sapiens (Human), UniProt Q12809); experiment: Effects on hERG potassium channel; type: cell-based
[10] = test system: MDA-MB-435s human breast cancer cells; experiment: In vitro anti-proliferative effect, CCK-8 method; type: cell-based
Method: as §2

Sequence of HDAC1 (Q13547 whole entry): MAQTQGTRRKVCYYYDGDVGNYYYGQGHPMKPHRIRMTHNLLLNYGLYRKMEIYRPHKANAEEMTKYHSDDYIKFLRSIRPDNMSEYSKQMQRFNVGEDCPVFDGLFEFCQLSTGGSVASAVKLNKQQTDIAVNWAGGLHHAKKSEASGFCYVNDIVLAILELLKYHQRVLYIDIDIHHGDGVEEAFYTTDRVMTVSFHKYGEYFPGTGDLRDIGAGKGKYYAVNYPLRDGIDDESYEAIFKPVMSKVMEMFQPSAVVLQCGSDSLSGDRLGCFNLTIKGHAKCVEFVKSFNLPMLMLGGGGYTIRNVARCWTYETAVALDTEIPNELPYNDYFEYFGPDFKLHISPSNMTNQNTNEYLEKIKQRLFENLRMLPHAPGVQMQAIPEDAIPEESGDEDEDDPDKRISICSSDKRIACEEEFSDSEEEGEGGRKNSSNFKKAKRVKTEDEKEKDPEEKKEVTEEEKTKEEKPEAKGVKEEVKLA
Sequence of hERG potassium channel (Q12809 whole entry): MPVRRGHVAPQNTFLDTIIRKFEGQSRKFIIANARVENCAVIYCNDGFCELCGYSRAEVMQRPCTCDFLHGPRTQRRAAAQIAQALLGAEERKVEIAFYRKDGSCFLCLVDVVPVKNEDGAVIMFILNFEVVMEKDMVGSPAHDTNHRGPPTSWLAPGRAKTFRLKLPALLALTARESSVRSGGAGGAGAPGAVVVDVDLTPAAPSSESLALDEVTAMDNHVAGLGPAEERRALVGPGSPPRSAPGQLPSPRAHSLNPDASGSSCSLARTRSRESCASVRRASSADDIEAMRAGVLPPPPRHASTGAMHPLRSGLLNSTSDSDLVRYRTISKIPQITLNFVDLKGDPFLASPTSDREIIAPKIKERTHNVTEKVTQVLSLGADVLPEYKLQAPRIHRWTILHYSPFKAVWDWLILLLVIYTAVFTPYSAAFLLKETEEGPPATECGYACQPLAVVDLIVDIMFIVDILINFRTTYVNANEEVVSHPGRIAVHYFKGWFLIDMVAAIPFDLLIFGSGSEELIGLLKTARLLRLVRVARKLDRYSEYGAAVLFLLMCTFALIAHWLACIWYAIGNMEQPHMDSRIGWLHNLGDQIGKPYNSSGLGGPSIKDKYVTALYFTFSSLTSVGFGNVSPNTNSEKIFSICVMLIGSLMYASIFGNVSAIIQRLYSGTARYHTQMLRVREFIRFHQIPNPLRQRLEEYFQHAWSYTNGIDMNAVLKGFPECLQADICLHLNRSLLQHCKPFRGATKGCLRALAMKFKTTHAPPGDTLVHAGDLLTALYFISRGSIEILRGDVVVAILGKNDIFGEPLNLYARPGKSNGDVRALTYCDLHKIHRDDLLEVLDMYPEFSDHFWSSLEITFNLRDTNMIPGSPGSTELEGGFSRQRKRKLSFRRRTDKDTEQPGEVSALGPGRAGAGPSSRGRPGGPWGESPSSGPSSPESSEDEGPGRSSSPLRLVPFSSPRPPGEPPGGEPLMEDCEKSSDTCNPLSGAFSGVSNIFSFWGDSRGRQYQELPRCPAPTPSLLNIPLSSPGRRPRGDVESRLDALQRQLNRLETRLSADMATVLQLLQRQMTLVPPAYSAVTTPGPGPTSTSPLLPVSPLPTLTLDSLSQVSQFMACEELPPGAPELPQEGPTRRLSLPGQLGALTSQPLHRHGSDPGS

Compound | IC50 (HDAC1) [nM] | inhibition at 1 µM (HDAC1) [%] | inhibition at 10 µM (HDAC1) [%] | IC50 ([3]; Homo sapiens, HuT78) [nM] | IC50 (HDACs) [nM] | inhibitory activity against HDAC1 compared with MS-275 (by IC50) (HDAC1) | further results
Cc1ccc2[nH]c(C(=O)NCc3ccc(C(=O)Nc4ccccc4N)cc3)cc2c1 [Compound V-19] | 414 | 73.1 | 84 | 1190 | 1140 | better inhibitory activities against HDAC1 as compared with MS-275 | IC50 [1]: 1910 nM; IC50 ([2]; Homo sapiens): 10200 nM; IC50 ([4]; Homo sapiens): 191 nM; inhibition rate for tumor cells compared with MS-275 [5]: higher inhibition rate for multiple strains of tumor cells as compared with MS-275; inhibitory activity on HDACs compared with MS-275 (by IC50) (HDACs): better inhibitory activities than MS-275
Nc1ccccc1NC(=O)c1ccc(CNC(=O)c2cc3cc(C(F)(F)F)ccc3[nH]2)cc1 [Compound V-20] | – | 39.4 | 72.2 | – | – | – | –
Nc1ccc(F)cc1NC(=O)c1ccc(CNC(=O)c2cc3ccccc3[nH]2)cc1 [Compound V-7] | – | 41.4 | 53.3 | – | – | – | –
Nc1ccc2[nH]c(C(=O)NCc3ccc(C(=O)Nc4ccccc4N)cc3)cc2c1 [Compound V-23] | 998 | 67.1 | 78.8 | – | 6890 | – | –
Nc1ccc(F)cc1NC(=O)c1ccc(CNC(=O)c2nc3ccccc3[nH]2)cc1 [Compound V-13] | – | 13.4 | 23.9 | – | – | – | –
Nc1cnccc1NC(=O)c1ccc(CNC(=O)c2cc3ccccc3s2)cc1 [Compound V-28] | 731 | 53.5 | 77.4 | – | 1310 | – | –
Nc1ccccc1NC(=O)c1ccc(CNC(=O)c2cc3cc(F)ccc3[nH]2)cc1 [Compound V-18] | – | 22.1 | 49.5 | – | – | – | –
Nc1ccc(F)cc1NC(=O)c1ccc(CNC(=O)c2cc3ccccc3s2)cc1 [Compound V-27] | 276 | 47.6 | 80.2 | 55.8 | 1220 | better inhibitory activities against HDAC1 as compared with MS-275 | IC50 [1]: 2810 nM; IC50 ([2]; Homo sapiens): 16000 nM; IC50 ([8]; Homo sapiens): 1390 nM; IC50 ([6]; Homo sapiens, COLO 320): 27000 nM; IC50 ([4]; Homo sapiens): 3570 nM; IC50 ([9]; Homo sapiens): 5090 nM; inhibition rate for tumor cells compared with MS-275 [5]: higher inhibition rate for multiple strains of tumor cells as compared with MS-275
COc1ccc2cc(C(=O)NCc3ccc(C(=O)Nc4ccccc4N)cc3)ccc2c1 [Compound V-3] | – | 33.3 | 60 | – | – | – | –
Nc1cnccc1NC(=O)c1ccc(CNC(=O)c2cc3ccccc3[nH]2)cc1 [Compound V-6] | 344 | 68.5 | 74.5 | 8.8 | 7790 | better inhibitory activities against HDAC1 as compared with MS-275 | IC50 [1]: 2090 nM; IC50 ([2]; Homo sapiens): 3070 nM; IC50 ([8]; Homo sapiens): 128 nM; IC50 ([6]; Homo sapiens, COLO 320): 3130 nM; IC50 ([4]; Homo sapiens): 370 nM; IC50 ([9]; Homo sapiens): 1250 nM; inhibition rate for tumor cells compared with MS-275 [5]: higher inhibition rate for multiple strains of tumor cells as compared with MS-275
Nc1ccccc1NC(=O)c1ccc(CNC(=O)OCc2cccnc2)cc1 [MS-275, reference compound] | – | – | – | – | 3520 | – | IC50 [2]: 6820 nM; IC50 ([3]; Hut78): 528 nM; IC50 [8]: 561 nM; IC50 [6]: 522 nM; IC50 [4]: 502 nM; IC50 [10]: 2710 nM; IC50 [9]: 2280 nM
Nc1ccc(-c2ccco2)cc1NC(=O)c1ccc(CNC(=O)c2nc3ccccc3[nH]2)cc1 [Compound V-14] | – | 74.8 | 87.2 | 356 | – | better inhibitory activities against HDAC1 as compared with MS-275 | IC50 [1]: 437 nM; IC50 ([2]; Homo sapiens): 1520 nM; IC50 ([8]; Homo sapiens): 458 nM; IC50 ([9]; Homo sapiens): 3140 nM
Nc1ccc(-c2cccs2)cc1NC(=O)c1ccc(CNC(=O)c2cc3ccccc3o2)cc1 [Compound V-10] | – | 58.9 | 75.4 | – | – | – | –
CC(=O)c1ccc2[nH]c(C(=O)NCc3ccc(C(=O)Nc4ccccc4N)cc3)cc2c1 [Compound V-26] | 509 | 59.3 | 70.8 | 231 | 1370 | better inhibitory activities against HDAC1 as compared with MS-275 | IC50 [1]: 19900 nM; IC50 ([2]; Homo sapiens): 52200 nM; IC50 ([8]; Homo sapiens): 12400 nM; IC50 ([6]; Homo sapiens, COLO 320): 88400 nM; IC50 ([4]; Homo sapiens): 12200 nM; IC50 ([9]; Homo sapiens): 29900 nM
CNc1ccc2[nH]c(C(=O)NCc3ccc(C(=O)Nc4ccccc4N)cc3)cc2c1 [Compound V-22] | – | 36.8 | 59.5 | – | – | – | –
COc1ccc2cc(C(=O)NCc3ccc(C(=O)Nc4cc(F)ccc4N)cc3)ccc2c1 [Compound V-4] | – | 24.7 | 44.8 | – | – | – | –
CC(=O)Nc1ccc2[nH]c(C(=O)NCc3ccc(C(=O)Nc4ccccc4N)cc3)cc2c1 [Compound V-25] | 301 | 53.9 | 76.2 | 877 | 1020 | better inhibitory activities against HDAC1 as compared with MS-275 | IC50 ([4]; Homo sapiens): 69 nM; IC50 ([9]; Homo sapiens): 295 nM; inhibition rate for tumor cells compared with MS-275 [5]: higher inhibition rate for multiple strains of tumor cells as compared with MS-275

More lines, main results first:

IC50 (HDAC1) [nM] | inhibition at 1 µM (HDAC1) [%] | inhibition at 10 µM (HDAC1) [%] | IC50 ([3]; Homo sapiens, HuT78) [nM] | IC50 (HDACs) [nM] | Compound | inhibitory activity against HDAC1 compared with MS-275 (by IC50) (HDAC1) | further results
276 | 62.5 | 85.1 | 1790 | 3110 | Nc1cnccc1NC(=O)c1ccc(CNC(=O)c2cccc3ccccc23)cc1 [Compound V-16] | better inhibitory activities against HDAC1 as compared with MS-275 | IC50 [1]: 6080 nM; IC50 ([2]; Homo sapiens): 3360 nM; IC50 ([6]; Homo sapiens, COLO 320): 86000 nM; inhibitory activity on HDACs compared with MS-275 (by IC50) (HDACs): better inhibitory activities than MS-275
– | 38.1 | 58.5 | – | – | Nc1ccc(-c2ccccc2)cc1NC(=O)c1ccc(CNC(=O)c2cc3ccccc3o2)cc1 [Compound V-11] | – | –
1580 | 59.1 | 67.4 | – | 1720 | Nc1ccccc1NC(=O)c1ccc(CNC(=O)c2cc3ccccc3s2)cc1 [Compound V-24] | – | inhibitory activity on HDACs compared with MS-275 (by IC50) (HDACs): better inhibitory activities than MS-275
758 | 34.4 | 68.8 | – | 9400 | COc1c(C(=O)NCc2ccc(C(=O)Nc3ccccc3N)cc2)oc2ccccc12 [Compound V-21] | – | –
– | 59.6 | 81.1 | 19.4 | – | Nc1ccccc1NC(=O)c1ccc(CNC(=O)c2cc3ccccc3[nH]2)cc1 [Compound V-5] | better inhibitory activities against HDAC1 as compared with MS-275 | half-life ([7]; iv, 2 mg/kg, i.v., read-out: Intravenous half-life (converted)): 1.27 h; bioavailability ([7]; oral): 7.84%; half-life ([7]; oral, read-out: Oral half-life (converted)): 3.7 h; IC50 [1]: 1310 nM; IC50 ([2]; Homo sapiens): 3460 nM; IC50 ([8]; Homo sapiens): 179 nM; IC50 ([6]; Homo sapiens, COLO 320): 2450 nM; IC50 ([4]; Homo sapiens): 242 nM; IC50 ([9]; Homo sapiens): 2640 nM; inhibition at 10 µM (hERG potassium channel; human, hERG potassium current, 10 μM, read-out: Maximum inhibition percentage at 10 μM): 11.5 ± 0.8%; IC50 (hERG potassium channel; read-out: Half inhibition concentration for the effect on hERG potassium current IC50): > 10000 nM
– | 62.2 | 79.5 | – | – | Nc1ccccc1NC(=O)c1ccc(CNC(=O)c2cc3ccccc3o2)cc1 [Compound V-8] | – | –
– | 28.8 | 46.9 | – | – | Nc1ccc(F)cc1NC(=O)c1ccc(CNC(=O)c2ccc3ccccc3c2)cc1 [Compound V-2] | – | –
– | 4.49 | 15.2 | – | – | Nc1ccccc1NC(=O)c1ccc(CNC(=O)c2ccc3ccccc3c2)cc1 [Compound V-1] | – | –
– | 29.8 | 67.5 | 2780 | – | Nc1ccccc1NC(=O)c1ccc(CNC(=O)c2cccc3ccccc23)cc1 [Compound V-15] | better inhibitory activities against HDAC1 as compared with MS-275 | IC50 [1]: 2880 nM; IC50 ([2]; Homo sapiens): 2760 nM; IC50 ([8]; Homo sapiens): 1370 nM; IC50 ([6]; Homo sapiens, COLO 320): 9340 nM; IC50 ([4]; Homo sapiens): 2630 nM; inhibitory activity on HDACs compared with MS-275 (by IC50) (HDACs): better inhibitory activities than MS-275
– | 8.7 | 28.4 | – | – | Nc1ccccc1NC(=O)c1ccc(CNC(=O)c2nc3ccccc3[nH]2)cc1 [Compound V-12] | – | –
735 | 54 | 76.2 | – | 920 | Nc1ccc(F)cc1NC(=O)c1ccc(CNC(=O)c2cccc3ccccc23)cc1 [Compound V-17] | – | inhibitory activity on HDACs compared with MS-275 (by IC50) (HDACs): better inhibitory activities than MS-275
